Columns and labels:
collagenase mRNA = conditions: mouse, in vivo
Protocol: (§1) An experiment on Inhibitory effect on collagenase of the cosmetic composition containing vitamin U of the present invention was carried out. The experiment was carried for 4 weeks with the Atrichia mice divided into two groups, each of which is composed of 10 mice. Vitamin U containing cosmetic formula, prepared in cream with 10% vitamin U, was applied onto the back skin of the experimental group mouse every day. In the meantime, vitamin U-free ordinary formula was applied on the control. 4 weeks later, back skin was picked from both groups. RNA was extracted from the skin tissues, followed by real-time PCR to investigate the transcription level of collagenase mRNA (FIG. 8).

collagen = conditions: mouse, in vivo
Protocol: as §1

[1] = test system: human epidermal keratinocytes; conditions: vitamin U 10^−2, 10^−3, 10^−4 M, 1/10 growth factor, scratch; vs control not treated with vitamin U
Protocol: The following experiment was performed to investigate if vitamin U could increase the movement of human epidermal keratinocytes (hereinafter hEK) in vitro. The basic culture medium was obtained fromDefined Keratinocyte-SFM (Gibco, USA) with Defined Keratinocyte-SFM Growth supplement and growth factors. For the experiment, such an amount of 1/10 growth factor and vitamin U were added that the final concentrations of vitamin U should be 10^−2, 10^−3, and 10^−4 M. In the meantime, vitamin-free medium containing 1/10 growth factor was used for the control.
Human keratinocytes were cultured in a 6-well culture dish until the cells were grown at least 90% confluent. The cells were scratched out by using 2 mm micro tip. The fallen-off cells were washed out with PBS, followed by culture in another experimental medium.

human dermal fibroblasts = conditions: vitamin U 10^−2 or 10^−3 M, DMEM with 1% FBS, scratch; vs control not treated with vitamin
Protocol: The medium used for the wound healing experiment was obtained from DMEM with 1% FBS. Such an amount of vitamin U was added that the final vitamin U concentration should be 10^−2 or 10^−3 M. In the meantime, vitamin-free medium containing 1% FBS was used for the control.
Human fibroblasts were cultured in a 6-well culture dish until the cells were grown at least 90% confluent. The cells were scratched out by using 2 mm micro tip. The fallen-off cells were washed out with PBS, followed by culture in another experimental medium. Then, it was observed by photograph how many cells migrate into the room between scratches.

gastric mucosa [2] = conditions: pig, vitamin U administered; cited from earlier work
gastric mucosa [3] = conditions: rabbit, vitamin U administered; cited from earlier work

CS.CSCCC(N)C(=O)O.Cl (racemic) [vitamin U, DL-methionine methylsulfonium chloride]
collagenase mRNA transcription (collagenase mRNA): significant inhibition
collagen (Western blotting) (collagen): increase of collagen
migration of keratinocytes [1]: much more increased
migration of fibroblasts (human dermal fibroblasts): much more increased
ulcer of gastric mucosa (gastric mucosa [2]): suppressed
mucin secretion of gastric mucosa (gastric mucosa [3]): increased

— US20110009489A1, “COSMETIC COMPOSITION COMPRISING VITAMIN U AS ACTIVE INGREDIENT FOR HEALING WOUNDS AND REDUCING WRINKLES” (CUSKIN CO., LTD., priority 2008, published 2011)
